Measurements published in US20160187553A1, “METHOD OF MANUFACTURING POLARIZING PLATE, POLARIZING PLATE MANUFACTURED USING THE METHOD, AND LIQUID CRYSTAL DISPLAY DEVICE” (Konica Minolta, Inc., priority 2010, published 2016).
Read-outs that look alike come from different tables or passages of the source.

Columns and labels:
[1] = logP of additives A and B of the protective films
[2] = reference liquid; cited from earlier work

| SMILES | logP ([1]; additive of protective film) | logP [1] | γLd [2] [mN/m] | γLh [2] [mN/m] | γLp [2] [mN/m] |
| --- | --- | --- | --- | --- | --- |
| O=P(Oc1ccccc1)(Oc1ccccc1)Oc1ccccc1-c1ccccc1 [BDP, Biphenyldiphenyl phosphate] | 7.3 |  |  |  |  |
| CCC(COC(=O)c1ccccc1)(COC(=O)c1ccccc1)COC(=O)c1ccccc1 [Compound 16] |  | 7.9 |  |  |  |
| CCOC(=O)COC(=O)c1ccccc1C(=O)OCC [EPEG, Ethylphthalyl ethylglycolate] |  | 2.3 |  |  |  |
| O=C(OCC(COC(=O)c1ccccc1)(COC(=O)c1ccccc1)COC(=O)c1ccccc1)c1ccccc1 [PETB, pentaerythritol-tetrabenzoate] |  | 9.9 |  |  |  |
| O=P(Oc1ccccc1)(Oc1ccccc1)Oc1ccccc1 [TPP, Triphenyl phosphate] |  | 5.6 |  |  |  |
| ICI [diiodomethane] |  |  | 51.0 | 0.0 | 0.0 |
| C[N+](=O)[O-] [nitromethane] |  |  | 18.3 | 0.0 | 17.7 |
| O [water] |  |  | 30.4 | 42.4 | 0.0 |
